Data published in PubChem BioAssay (NCI).
“And” between values parts separate entries of the source, which are not always exact repeats. Equal entries are not always repeated.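 Briefly, cells in 96-well plates were exposed to five compound concentrations for 48 h, and endpoints were estimated by linear interpolation. The concentration for 50% growth inhibition is given as GI50. TGI: concentration producing complete growth inhibition.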

Experiments:
Assay in all cases: NCI-60 cell line screen, 48 h
SF-268 CNS = tested on: SF-268 CNS
HT29 colon = tested on: HT29 colon
SNB-19 CNS = tested on: SNB-19 CNS
SNB-75 CNS = tested on: SNB-75 CNS
ACHN renal = tested on: ACHN renal
LOX IMVI melanoma = tested on: LOX IMVI melanoma
MOLT-4 leukemia = tested on: MOLT-4 leukemia
EKVX NSCLC = tested on: EKVX NSCLC
SW-620 colon = tested on: SW-620 colon
SF-295 CNS = tested on: SF-295 CNS

Compound	TGI (SF-268 CNS)	TGI (HT29 colon)	TGI (SNB-19 CNS)	TGI (SNB-75 CNS)	TGI (ACHN renal)	TGI (LOX IMVI melanoma)	TGI (MOLT-4 leukemia)	TGI (EKVX NSCLC)	TGI (SW-620 colon)	TGI (SF-295 CNS)	GI50 (SF-268 CNS)	GI50 (HT29 colon)	GI50 (SNB-19 CNS)	GI50 (ACHN renal)	GI50 (LOX IMVI melanoma)	GI50 (EKVX NSCLC)	GI50 (SW-620 colon)	GI50 (SF-295 CNS)	GI50 (SNB-75 CNS)	GI50 (MOLT-4 leukemia)
CC(=O)NC(CCCN)C(=O)NCc1ccccc1 (stereo not drawn)	> 100 µM	> 100 µM	> 100 µM	> 100 µM	> 100 µM	> 100 µM	> 100 µM	> 100 µM	> 100 µM	> 100 µM										
COc1cc(Cc2cc(OC)c(OC)c(OC)c2)ccc1O	> 100 µM	> 100 µM	> 100 µM	28.6 µM	> 100 µM	> 100 µM	> 100 µM	> 100 µM	> 100 µM	28.6 µM										
COc1cc(C2c3cc4c(cc3[C@H](OCCN(C)C)[C@@H]3COC(=O)C23)OCO4)cc(OC)c1O (stereo partly drawn)	2.97 µM	3.01 µM	5.98 µM	3.79 µM	0.253 µM	0.803 µM	0.684 µM	1.5 µM	3.4 µM	0.583 µM										
O=C(O)C(Sc1ccc(Cl)cc1)Sc1ccc(Cl)cc1	> 100 µM	> 100 µM	> 100 µM	> 100 µM	> 100 µM	> 100 µM	> 100 µM	> 100 µM	> 100 µM	> 100 µM										
COC(=O)c1cc2c(c(C(=O)OC)c1O)C(=O)C=CC2=O	> 55.2 µM	> 9.1 µM and 38.5 µM	> 60.7 µM	> 9.1 µM and 31.8 µM	> 46.3 µM	> 56.9 µM	> 21.5 µM	> 41.4 µM	> 21.3 µM	> 56.3 µM	> 9.1 µM	18.4 µM	> 9.1 µM	> 9.1 µM	> 9.1 µM	> 9.1 µM	> 9.1 µM	> 9.1 µM		
Cc1ccc(C(=O)/C=C/c2ccccc2O)c(C)c1	> 100 µM	8.42 µM	> 100 µM	8.01 µM	> 100 µM	> 100 µM	> 100 µM	> 100 µM	> 100 µM	> 100 µM										
N#CCCN(CCC#N)c1ccc(/C=C2\N=C(CN3C(=O)c4ccccc4C3=O)OC2=O)cc1	> 100 µM	> 100 µM	> 100 µM	> 100 µM	> 100 µM	> 100 µM	> 100 µM	> 100 µM	> 100 µM	> 100 µM										
COc1cc(Cn2c(-c3ccccc3)cc3c2-c2oncc2CC3)cc(OC)c1OC	> 100 µM	47.2 µM	> 100 µM	3.99 µM	> 100 µM	> 100 µM	> 100 µM	> 100 µM	> 100 µM	5.57 µM	5.77 µM	0.446 µM	1.93 µM	0.961 µM	0.831 µM	1.39 µM	0.42 µM	0.366 µM	0.453 µM	0.976 µM
Cc1ccc(NC(=O)C2C(=O)N(c3ccc(C)c(C)c3)C(=O)/C2=N/O)cc1C (stereo not drawn)	> 100 µM	> 100 µM	> 100 µM	> 100 µM	> 100 µM	38.3 µM	> 100 µM	> 100 µM	37.2 µM	> 100 µM										
CN1C(NC(=O)c2ccc(Cl)nc2)=NS(=O)(=O)c2cc(Cl)ccc21	> 100 µM	> 100 µM	> 100 µM	> 100 µM	> 100 µM	> 100 µM	> 100 µM	> 100 µM	> 100 µM	> 100 µM	> 100 µM	> 100 µM	> 100 µM	> 100 µM	> 100 µM	> 100 µM	> 100 µM	> 100 µM	> 100 µM	> 100 µM
CC(C)CSc1nc(Nc2ccccc2)c(C#N)c(-c2ccc(F)cc2)n1	22.7 µM	> 100 µM	13.2 µM	5.21 µM	1.47 µM	21.4 µM	> 100 µM	16.5 µM	> 100 µM	11.4 µM	4.41 µM	14.5 µM	2.45 µM	0.403 µM	2.98 µM	1.73 µM	8.63 µM	0.971 µM	1.24 µM	11 µM
COc1cc([C@@H]2c3cc4c(cc3C(O[C@@H]3O[C@@H]5CO[C@@H](c6cccs6)OC5[C@H](O)[C@H]3O)C3COC(=O)[C@@H]32)OCO4)cc(OC)c1O (stereo partly drawn)	1.54 µM	1.1 µM	17 µM	0.491 µM	0.711 µM	0.911 µM	0.0284 µM	14.4 µM	1.63 µM	0.712 µM	0.0693 µM	0.123 µM	0.0278 µM	0.0269 µM	0.017 µM	0.677 µM	0.0603 µM	0.0224 µM	0.0659 µM	< 0.005 µM
N#CCCN(CCC#N)c1ccc(C(=O)NN)cc1	> 100 µM	> 100 µM	> 100 µM	> 100 µM	> 100 µM	> 100 µM	> 100 µM	> 100 µM	> 100 µM	> 100 µM										
O=C(CCCSc1nc(-c2ccc(Cl)cc2)cc(-c2ccc(Cl)cc2)n1)NO	7.72 µM	60 µM	13.2 µM	12 µM	10.4 µM	1.44 µM	> 100 µM	12.7 µM	11.5 µM	6.9 µM	1.21 µM	1.14 µM	1.92 µM	0.387 µM	0.222 µM	1.14 µM	0.838 µM	1.17 µM	2.1 µM	0.76 µM
CC(C)=CC(=O)N1CCN(C(=O)C=C(C)C)CC1	> 100 µM	> 100 µM	> 100 µM	> 100 µM	> 100 µM	> 100 µM	> 100 µM	> 100 µM	> 100 µM	> 100 µM										
C=C1C(=O)O[C@H]2[C@H]1CC/C(COC(=O)/C=C\C(=O)NCc1ccc(Cn3c(=O)sn(-c4ccc(C#N)cc4)c3=O)cc1)=C\CC[C@@]1(C)O[C@@H]21	1.41 µM	1.9 µM	2.27 µM	1.33 µM	1.14 µM	1.16 µM	4.82 µM	1.57 µM	1.22 µM	9.7 µM	0.724 µM	0.474 µM	0.969 µM	0.545 µM	0.437 µM	0.797 µM	0.353 µM	3.54 µM	0.581 µM	0.84 µM
COc1ccc(C(=O)/C=C/c2cccnc2Nc2cc(OC)c(OC)c(OC)c2)cc1	14.8 µM	1.6 µM	17.3 µM	17.6 µM	4.06 µM	2.28 µM	7.64 µM	19.2 µM	1.59 µM	18.9 µM	3.04 µM	0.38 µM	2.82 µM	1.9 µM	0.738 µM	5.11 µM	0.349 µM	1.71 µM	3.4 µM	2.26 µM
CN(C)C(=S)SN(C)C(=O)Nc1ccccc1	99.9 µM	24.4 µM	> 100 µM	> 92.1 µM	> 96.4 µM	44.7 µM	85.8 µM	> 100 µM	42.6 µM	> 100 µM										
NCCCNCCSSCCCCS(=O)O	40.6 µM	> 100 µM	> 100 µM	> 100 µM	> 100 µM	21.6 µM	47.1 µM	> 100 µM	> 100 µM	> 100 µM										
COc1ccc(C2CC(=O)c3c(OC)cc(OC)cc3O2)cc1 (stereo not drawn)	> 100 µM	> 100 µM	> 100 µM	> 100 µM	> 100 µM	> 100 µM	> 100 µM	> 100 µM	> 100 µM	> 100 µM	> 100 µM	> 100 µM	> 100 µM	> 100 µM	> 100 µM	> 100 µM	> 100 µM	> 100 µM	> 100 µM	> 100 µM
COc1ccc(-n2cc(-c3cc(OC)c(OC)c(OC)c3)[nH]c2=S)cc1OC	> 100 µM	> 100 µM	> 100 µM	> 100 µM	> 100 µM	> 100 µM	> 100 µM	> 100 µM	> 100 µM	> 100 µM	> 100 µM	> 100 µM	> 100 µM	> 100 µM	> 100 µM	> 100 µM	> 100 µM	> 100 µM	57 µM	7.04 µM
COC(=O)C(=O)C(C(=O)C(=O)Nc1ccc(C)cc1C)c1nc2ccccc2[nH]c1=O (stereo not drawn)	> 100 µM	> 100 µM	> 100 µM	69.2 µM	> 100 µM	> 100 µM	> 100 µM	> 100 µM	> 100 µM	> 100 µM										
N#C/C(C(=S)Nc1ccccc1)=C1/NN=C2c3ccccc3C(=O)NN21	> 100 µM	> 100 µM	> 100 µM	43.5 µM	> 100 µM	52.8 µM	> 100 µM	> 100 µM	> 100 µM	49.5 µM	35.3 µM	29.2 µM	30.4 µM	35.5 µM	19.9 µM	35.3 µM	28.7 µM	17.1 µM	16.6 µM	32.1 µM
